Key:
[1] = Cytotoxicity (CC50) in Vero E6 and huh-7 cells; assay type: cell-based; details: African green monkey (Vero E6) and human (huh-7), Vero E6 cells and huh-7 cells
[2] = test system: HCoV-229E; experiment: Inhibition of virus-induced cytopathic effect (MTT), HCoV-229E; assay type: cell-based; details: Human coronavirus 229E, CPE inhibition, 100 TCID50, 72–96 h
[3] = test system: SARS-CoV-2 XBB.1.16; experiment: Inhibition of virus-induced cytopathic effect (MTT), SARS-CoV-2 XBB.1.16; assay type: cell-based; details: Severe acute respiratory syndrome coronavirus 2
[4] = test system: SARS-CoV-2 BQ.1.1.45; experiment: Inhibition of virus-induced cytopathic effect (MTT), SARS-CoV-2 BQ.1.1.45; assay type: cell-based; details: Severe acute respiratory syndrome coronavirus 2
[5] = test system: SARS-CoV-2 EG.5.1.1; experiment: Inhibition of virus-induced cytopathic effect (MTT), SARS-CoV-2 EG.5.1.1; assay type: cell-based; details: Severe acute respiratory syndrome coronavirus 2
[6] = test system: HIV; details: compared with emtricitabine (FTC); cited from earlier work

| SMILES | CC50 [1] | IC50 [2] | IC50 [3] | IC50 [4] | IC50 [5] | times higher anti-HIV activity than the parent drug [6] |
| --- | --- | --- | --- | --- | --- | --- |
| CC(C)C(=O)OC[C@H]1O[C@@H](n2ccc(NO)nc2=O)[C@H](O)[C@@H]1O [EIDD-2801, Molnupiravir, reference compound] | ≥ 50000 nM | 3440 nM | 1510 nM | 310 nM | 530 nM |  |
| Cc1ccc(CC(=O)OC[C@H]2O[C@@H](n3ccc(NO)nc3=O)[C@H](O)[C@@H]2O)cc1 [SN_14, 5′-O-(4-Methylphenyl)acetyl-N4-hydroxycytidine] | ≥ 50000 nM | 10500 nM | 2160 nM | 700 nM | 1090 nM |  |
| COc1ccc(CC(=O)OC[C@H]2O[C@@H](n3ccc(NO)nc3=O)[C@H](O)[C@@H]2O)cc1 [SN_16, 5′-O-(4-Methoxyphenyl)acetyl-N4-hydroxycytidine] | ≥ 50000 nM | 7290 nM | 2020 nM | 710 nM | 560 nM |  |
| Cc1cccc(OCC(=O)OC[C@H]2O[C@@H](n3ccc(NO)nc3=O)[C@H](O)[C@@H]2O)c1 [SN_22, 5′-O-(3-Methylphenoxy)acetyl-N4-hydroxycytidine] | ≥ 50000 nM | 1620 nM | 250 nM | 210 nM | 200 nM |  |
| O=C(Cc1ccc(F)cc1)OC[C@H]1O[C@@H](n2ccc(NO)nc2=O)[C@H](O)[C@@H]1O [SN_18, 5′-O-(4-Fluorophenyl)acetyl-N4-hydroxycytidine] | ≥ 50000 nM | 21000 nM | 2760 nM | 1210 nM | 1780 nM |  |
| O=C(Cc1ccccc1Cl)OC[C@H]1O[C@@H](n2ccc(NO)nc2=O)[C@H](O)[C@@H]1O [SN_19, 5′-O-(2-Chlorophenyl)acetyl-N4-hydroxycytidine] | ≥ 50000 nM | 23800 nM | 5710 nM | 2340 nM | 2160 nM |  |
| COc1cccc(CC(=O)OC[C@H]2O[C@@H](n3ccc(NO)nc3=O)[C@H](O)[C@@H]2O)c1 [SN_15, 5′-O-(3-Methoxyphenyl)acetyl-N4-hydroxycytidine] | ≥ 50000 nM | 11100 nM | 2090 nM | 740 nM | 530 nM |  |
| O=C(COc1ccccc1)OC[C@H]1O[C@@H](n2ccc(NO)nc2=O)[C@H](O)[C@@H]1O [SN_21, 5′-O-Phenoxyacetyl-N4-hydroxycytidine] | ≥ 50000 nM | 5130 nM | 1280 nM | 860 nM | 830 nM |  |
| O=C(OC[C@H]1O[C@@H](n2ccc(NO)nc2=O)[C@H](O)[C@@H]1O)C1(c2ccccc2)CC1 [SN_20, 5′-O-(1-Phenylcyclopropanoyl-1-carbonyl)-N4-hydroxycytidine] | ≥ 50000 nM | > 100000 nM | > 100000 nM | ≥ 50000 nM | > 100000 nM |  |
| COc1cccc(CCC(=O)OC[C@H]2O[C@@H](n3ccc(NO)nc3=O)[C@H](O)[C@@H]2O)c1 [SN_23, 5′-O-3-(3-Methoxyphenyl)propanoyl-N4-hydroxycytidine] | ≥ 50000 nM | 1680 nM | 1020 nM | 260 nM | 300 nM |  |
| CCCCCCCCCCCCCC(=O)OC[C@@H]1O[C@H](n2cc(F)c(N)nc2=O)CS1 |  |  |  |  |  | 10–24 times |
| O=C(Cc1ccccc1F)OC[C@H]1O[C@@H](n2ccc(NO)nc2=O)[C@H](O)[C@@H]1O [SN_17, 5′-O-(2-Fluorophenyl)acetyl-N4-hydroxycytidine] | ≥ 50000 nM | 7860 nM | 1690 nM | 650 nM | 980 nM |  |

From paper PMC10821229, “Synthesis and Antiviral Activity of Novel β-D-N4-Hydroxycytidine Ester Prodrugs as Potential Compounds for the Treatment of SARS-CoV-2 and Other Human Coronaviruses” (Pharmaceuticals, 2023)
